The record followed here is patent publication US20040072824A1, “Methods and compositions for the treatment of cancer” (priority 2001, published 2004).

Like-named read-outs stand apart in the source and are kept apart here.

Data set [1] concerns U937 cells. In words: Antineoplastic activity, U937 cells injected in scid/scid mice, treatment from day 1. Format: in vivo. As to conditions: 100 mg/kg; six mice. The protocol:
Ten million U937 cells were subcutaneously injected into scid/scid mice. One injection was carried out per each of the 6 mice tested per set. The excipient or the compounds tested were administered intraperitoneally on day 1, i.e., the day of U937 cell line inoculation, of the experiment. The excipients or compounds were administered once daily. The tumor sizes were measured on day 5, day 8, day 12, day 14 and day 19 after the injection.

In data set [2] the test system is U937 cells. In words: Curative effects on palpable tumors, U937 cells in scid/scid mice. It is filed as in vivo. As for the experimental part: In this series of experiments, effects of various compounds of the present invention on tumor development were tested using two protocols. The first protocol is directed to the testing of curative effects of these compounds in different cell lines. In this protocol, cancerous cells are inoculated to the animals, and the inoculated animals were left without any further treatment until the development of tumors. As soon as the tumors became palable (4 mm^3), the compounds of this invention were administered daily to the animals. Two different cell lines, i.e., U937 and MDA-MB-231 (breast cancer line), were used for this protocol to inoculate scid/scid mice.

For another data set, the system named is U937. It is filed as in vivo. As to conditions: treatment from day 1, cells inoculated after more than 24 hours, daily administration. As for the experimental part: The second protocol was designed to test the preventive effects of the compounds of this invention on tumorigenesis. In this protocol, the animals have been treated with various compounds of the present invention on day 1. After more than 24 hours, tumoral cells were inoculated. The administration of the compounds of this invention was maintained daily. The cell line used for this test was U937.

Data set [3] deals with K562, U937, MDA-DB231, BT20 and MCF7 cell lines. As to the kind of experiment: Cytotoxic effects in multi-well plate, 6 days, ATP level (CellTiter-Glo). As to conditions: 2x10^-9 M to 2x10^-4 M. Background: ATP-based viability assays read luminescence as a measure of living cells.
In data set [4] the test system is blastic cells from AML patients. As to the kind of experiment: Inhibition of viability of fresh leukemic cells (trypan blue exclusion). Format: cell-based, human. As to conditions: Homo sapiens, day 3; for cytotoxicity at 10 µM: 10^-5 M; for cytotoxicity at 1 µM: 10^-6 M. In a few lines: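 Blasts from AML samples 1 to 5 (least to most differentiated) were incubated with or without anti-histamine derivatives, with Polaramine as negative control. Viable counts by trypan blue exclusion at day 3, with Wright-Giemsa morphology. Values are % growth inhibition versus negative control.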

The mark [5] stands for this setting: 72 h, MEAN over AML patients, read-out: In Vitro Percent Inhibition of Viability, MEAN.
The mark [6] stands for this setting: 72 h, patient ID 3, FAB AML2, read-out: In Vitro Percent Inhibition of Viability.
Setting [7] is: 72 h, patient ID 4, FAB AML2, read-out: In Vitro Percent Inhibition of Viability.
Where [8] appears, read: 72 h, patient ID 5, FAB AML2, read-out: In Vitro Percent Inhibition of Viability.
[9] abbreviates: 72 h, patient ID 10, FAB AML4, read-out: In Vitro Percent Inhibition of Viability.
The mark [10] stands for this setting: 72 h, patient ID 11, FAB AML5, read-out: In Vitro Percent Inhibition of Viability.
Where [11] appears, read: 72 h, patient ID 13, FAB AML5, read-out: In Vitro Percent Inhibition of Viability.
Setting [12] is: 72 h, patient ID 14, FAB AML5, read-out: In Vitro Percent Inhibition of Viability.
Setting [13] is: 72 h, patient ID 15, FAB AML5, read-out: In Vitro Percent Inhibition of Viability.
The mark [14] stands for this setting: AML1, 72 h, patient ID 1, FAB AML1, read-out: In Vitro Percent Inhibition of Viability.
The mark [15] stands for this setting: AML1, 72 h, patient ID 2, FAB AML1, read-out: In Vitro Percent Inhibition of Viability.
The mark [16] stands for this setting: AML3, 72 h, patient ID 6, FAB AML3, read-out: In Vitro Percent Inhibition of Viability.
The mark [17] stands for this setting: AML3, 72 h, patient ID 7, FAB AML3, read-out: In Vitro Percent Inhibition of Viability.
[18] abbreviates: AML3, 72 h, patient ID 8, FAB AML3, read-out: In Vitro Percent Inhibition of Viability.
Where [19] appears, read: AML3, 72 h, patient ID 9, FAB AML3, read-out: In Vitro Percent Inhibition of Viability.

`Nc1ccn([C@@H]2O[C@H](CO)[C@@H](O)[C@@H]2O)c(=O)n1` [ARA-C, cytarabine]: the “mice that developed a tumor” value with U937 cells [1] was “none of the six”. In addition, the tumor development result in the data set on U937 cells [2] (positive control, treated once tumors palpable) was “no tumor development”.
Consider `CSc1ccc2c(c1)N(CCC1CCCCN1C)c1ccccc1S2` (stereo not drawn) [S60, thioridazine], for which the “tumor growth compared to the negative control” value in the data set with U937 is recorded as “decrease in tumor growth”. For the same compound, the cytotoxic effect group result in data set [3] is listed as “I”. For the same compound, the cytotoxicity at 10 µM in data set [4] (setting [5]) stood at 53%; in data set [4] (setting [6]), 91%; in data set [4] (setting [7]), 42%; in data set [4] (setting [8]) it was 51%; in data set [4] (setting [9]), 48%; in data set [4] (setting [10]), 43%. The cytotoxicity at 10 µM stood at 88% in data set [4] (72 h, patient ID 12, FAB AML5, read-out: In Vitro Percent Inhibition of Viability); 62% in data set [4] (setting [11]); 15% in data set [4] (setting [12]); 27% in data set [4] (setting [13]); 42% in data set [4] (setting [14]); 13% in data set [4] (setting [15]). In addition, the cytotoxicity at 10 µM was found to be 89% in data set [4] (setting [16]), 95% in data set [4] (setting [17]), 56% in data set [4] (setting [18]) and 38% in data set [4] (setting [19]). The cytotoxicity at 1 µM in data set [4] (setting [5]) came to 14%; in data set [4] (setting [6]), 12%; in data set [4] (setting [7]), 19%; in data set [4] (setting [8]), 35%; in data set [4] (setting [9]), 6%; in data set [4] (setting [10]), 39%. Also, the cytotoxicity at 1 µM in data set [4] (setting [11]) stood at 15%; in data set [4] (setting [12]), 25%; in data set [4] (setting [13]), 0%; in data set [4] (setting [14]) it was 8%; in data set [4] (setting [15]) it was 8%; in data set [4] (setting [16]), 13%. The values for the cytotoxicity at 1 µM in data set [4] (setting [17]), in data set [4] (setting [18]) and in data set [4] (setting [19]) were 12%, 0% and 0%, respectively. Also, in the data set with U937 cells [2] (daily administration once tumors palpable (4 mm^3)), the tumor growth result is on record as “delay in the tumor growth”.
